How the values were obtained:
[1] = test system: R223X stop codon in the mutated luciferase gene, ADXC8 luciferase reporter cell line; assay: cells; assay type: cell-based; settings: ADXC8 cells, 24 hours; for EC (100% of 200 uM G418 response) / Emax: 24 h; for EC (100% of 200 uM G418 response): read-out: pC100%, negative logarithm of the concentration giving the same response as 200 μM G418; for Emax: read-out: Fold Over Control, maximum fold response relative to 200 μM G418
[2] = test system: R213X mutation in the p53 gene, HDQ-P1 cells; assay: Read-through of R213X mutation in HDQ-P1 cells: truncated and full-length p53 by automated capillary electrophoresis western analysis; assay type: cell-based; settings: Homo sapiens; for EC (50% of 200 uM G418 response): pC50% NMD: production of truncated p53, concentration giving 50% of the response of 200 μM G418, 24 h; for EC (100% of 200 uM G418 response): pC100% RT: production of full-length p53, concentration giving the same response as 200 μM G418, 24 h
Protocol: The ability of compounds to promote read-through in cells was assessed using the HDQ-P1 cell line which contain the R213X mutation in the p53 gene. […] Changes in the protein levels of p21, a direct downstream target of p53, were also determined as evidence of functional p53 protein production.
HDQ-P1 cells (R213X) were treated with DMSO (0.3%), or test article for 24 h at various concentrations. Cells were washed once with ice cold 1×PBS and lysed in M-Per protein extraction reagent (ThermoFisher), Benzonase® Nuclease and protease inhibitor mixture (Roche) centrifuged at 4° C. for 15 min at 16 000×g, the supernatants, termed cell extracts, were collected and total proteins were quantified with Bradford protein assay kit (ThermoFisher). Briefly, mixtures of cell lysates (protein concentration 0.5 mg/mL) and the fluorescent master mix were heated at 95° C. for 5 min. […] Signals were generated using BioTechne anti-mouse detection module and anti-rabbit NIR detection module. […] As an additional loading control, total protein levels were assessed with the ProteinSimple protein normalisation module. The data were acquired and analysed using the inbuilt Compass software (ProteinSimple) with the high dynamic range detection profile, which uses multiple substrate injections and exposure times. Electropherograms were converted to pseudo-blots and presented in figures for ease of visualization.
Concentration effect curves for both the production of truncated and full-length p53 were analysed using non-linear regression using the CDD Vault from Collaborative Drug Discovery (Burlingame, CA). […] The bottom and top of the curves were constrained to 0 and the maximum measured response respectively. From the fitted curves, the software derived C100% or C50% values (the concentration giving the same or 50% of the response of 200 μM G418) for each compound. The negative logarithm of C50% or C100% is reported as pC50% NMD or pC100% RT for the production of truncated or full-length p53 respectively (Table 2).

## CNc1nc(N[C@H]2CNC[C@@H]2OC)nc2nc(C)cc(C)c12 [Example 227, N^2-((3S,4S)-4-methoxypyrrolidin-3-yl)-N^4,5,7-trimethylpyrido[2,3-d]pyrimidine-2,4-diamine]
[1]
  EC (100% of 200 uM G418 response): 0.1 to 1 µM
[2]
  EC (50% of 200 uM G418 response): 1 to 10 µM
  EC (100% of 200 uM G418 response): 1 to 10 µM

## CNc1nc(N[C@H]2CNCC[C@H]2OC)nc2nc(C)cc(C)c12 [Example 516, N^2-((3S,4R)-4-methoxypiperidin-3-yl)-N^4,5,7-trimethylpyrido[2,3-d]pyrimidine-2,4-diamine]
[1]
  EC (100% of 200 uM G418 response): 0.01 to 0.1 µM
[2]
  EC (50% of 200 uM G418 response): 0.1 to 1 µM
  EC (100% of 200 uM G418 response): 0.1 to 1 µM

## Cc1c(Cl)c(-c2ccccc2)nc2nc(NC3CCN(C)CC3)nc(N)c12 [Example 48, 6-chloro-5-methyl-N2-(1-methylpiperidin-4-yl)-7-phenylpyrido[2,3-d]pyrimidine-2,4-diamine]
[1]
  EC (100% of 200 uM G418 response): 1 to 10 µM
[2]
  EC (50% of 200 uM G418 response): 1 to 10 µM
  EC (100% of 200 uM G418 response): 1 to 10 µM

## CNc1cc(N[C@H]2CN(C)C[C@H]2F)nc2nc3c(c(C)c12)CCC3 [Example 422]
[1]
  EC (100% of 200 uM G418 response): 0.1 to 1 µM
[2]
  EC (50% of 200 uM G418 response): 0.1 to 1 µM
  EC (100% of 200 uM G418 response): 0.1 to 1 µM

## CC(=O)Nc1ccccc1CN1CCC(Nc2nc(N)c3c(C)cc(C)nc3n2)CC1 [Example 486]
[1]
  Emax: 100 to 3000%
  EC (100% of 200 uM G418 response): 0.1 to 1 µM
[2]
  EC (50% of 200 uM G418 response): 1 to 10 µM
  EC (100% of 200 uM G418 response): 1 to 10 µM

## CCNc1nc(N[C@@H]2CCN(C)C2)nc2nc3c(c(C)c12)CCC3 [Example 234, (R)—N^4-ethyl-5-methyl-N^2-(1-methylpyrrolidin-3-yl)-7,8-dihydro-6H-cyclopenta[5,6]pyrido[2,3-d]pyrimidine-2,4-diamine]
[1]
  EC (100% of 200 uM G418 response): 0.1 to 1 µM
[2]
  EC (50% of 200 uM G418 response): 0.1 to 1 µM
  EC (100% of 200 uM G418 response): 0.1 to 1 µM

## CNc1nc(NC2CCN(Cc3ccccc3O)CC2)nc2nc3c(c(C)c12)CCC3 [Example 656]
[1]
  Emax: 100 to 3000%
  EC (100% of 200 uM G418 response): 0.01 to 0.1 µM
[2]
  EC (50% of 200 uM G418 response): 0.1 to 1 µM
  EC (100% of 200 uM G418 response): 0.1 to 1 µM

## CNc1nc(N[C@H]2CN(C)C[C@@H]2O)nc2nc(C)c3c(c12)CCC3 [Example 363]
[1]
  Emax: 100 to 3000%
  EC (100% of 200 uM G418 response): 0.1 to 1 µM
[2]
  EC (50% of 200 uM G418 response): 0.1 to 1 µM
  EC (100% of 200 uM G418 response): 1 to 10 µM

## Cc1cc(C)c2c(N)nc(N[C@@H]3CCCNC3)nc2n1 [Example 225, (R)-5,7-dimethyl-N^2-(piperidin-3-yl)pyrido[2,3-d]pyrimidine-2,4-diamine]
[1]
  EC (100% of 200 uM G418 response): 0.1 to 1 µM
[2]
  EC (50% of 200 uM G418 response): 0.1 to 1 µM
  EC (100% of 200 uM G418 response): 1 to 10 µM

## CNc1nc(N[C@H]2CN(C)C[C@@H]2F)nc2nc3c(c(C)c12)CCC3 [Example 362]
[1]
  Emax: 100 to 3000%
  EC (100% of 200 uM G418 response): 1 to 10 µM
[2]
  EC (50% of 200 uM G418 response): 0.1 to 1 µM
  EC (100% of 200 uM G418 response): 1 to 10 µM

## Cc1nc2nc(NC3CCN(Cc4cccc(F)c4O)CC3)nc(N)c2c2c1CCC2 [Example 531]
[1]
  Emax: 100 to 3000%
  EC (100% of 200 uM G418 response): 0.1 to 1 µM
[2]
  EC (50% of 200 uM G418 response): 1 to 10 µM
  EC (100% of 200 uM G418 response): 1 to 10 µM

## CO[C@H]1CNC[C@@H]1Nc1nc(N)c2c(C)cc(C)nc2n1 [Example 583]
[1]
  EC (100% of 200 uM G418 response): 0.01 to 0.1 µM
[2]
  EC (50% of 200 uM G418 response): 1 to 10 µM

## CN1CCC(Nc2nc(N)c3c4c(c(-c5ccccc5)nc3n2)CCC4)CC1 [Example 45, N^3-(1-methylpiperidin-4-yl)-6-phenyl-8,9-dihydro-7H-cyclopenta[4,5]pyrido[2,3-d]pyrimidine-1,3-diamine]
[1]
  Emax: 100 to 3000%
  EC (100% of 200 uM G418 response): 0.1 to 1 µM
[2]
  EC (50% of 200 uM G418 response): 1 to 10 µM
  EC (100% of 200 uM G418 response): 1 to 10 µM

## CNc1nc(N[C@H]2CNC[C@H]2F)nc2nc3c(c(C)c12)CCC3 [Example 343]
[1]
  Emax: 100 to 3000%
  EC (100% of 200 uM G418 response): 0.1 to 1 µM
[2]
  EC (50% of 200 uM G418 response): 1 to 10 µM
  EC (100% of 200 uM G418 response): 1 to 10 µM

## Cc1nc2nc(NC3CCN(Cc4ccncc4)CC3)nc(N)c2c2c1CCC2 [Example 529]
[1]
  Emax: 100 to 3000%
  EC (100% of 200 uM G418 response): 0.1 to 1 µM
[2]
  EC (50% of 200 uM G418 response): 1 to 10 µM

## CNc1nc(N[C@H]2CN(C)C[C@@H]2OC)nc2nc3c(c(C)c12)CCC3 [Example 423]
[1]
  EC (100% of 200 uM G418 response): 0.01 to 0.1 µM
[2]
  EC (50% of 200 uM G418 response): 0.1 to 1 µM
  EC (100% of 200 uM G418 response): 0.1 to 1 µM

## CNc1nc(N[C@H]2CN(C)C[C@@H]2OC)nc2nc(C)cc(C)c12 [Example 228, N^2-((3S,4S)-4-methoxy-1-methylpyrrolidin-3-yl)-N^4,5,7-trimethylpyrido[2,3-d]pyrimidine-2,4-diamine]
[1]
  Emax: 100 to 3000%
  EC (100% of 200 uM G418 response): 0.1 to 1 µM
[2]
  EC (50% of 200 uM G418 response): 0.1 to 1 µM
  EC (100% of 200 uM G418 response): 1 to 10 µM

## CNc1nc(N[C@@H]2CCNC2)nc2nc(C)c3c(c12)CCC3 [Example 304]
[1]
  EC (100% of 200 uM G418 response): 0.1 to 1 µM
[2]
  EC (50% of 200 uM G418 response): 1 to 10 µM
  EC (100% of 200 uM G418 response): 1 to 10 µM

## Cc1c2c(nc3nc(NC4CCNCC4)nc(N)c13)CCC2 [Example 577]
[1]
  Emax: 100 to 3000%
  EC (100% of 200 uM G418 response): 0.01 to 0.1 µM
[2]
  EC (50% of 200 uM G418 response): 1 to 10 µM
  EC (100% of 200 uM G418 response): 1 to 10 µM

## CNc1nc(N[C@H]2CN(C)C[C@@H]2O)nc2nc(C)cc(C)c12 [Example 338]
[1]
  Emax: 100 to 3000%
  EC (100% of 200 uM G418 response): 1 to 10 µM
[2]
  EC (50% of 200 uM G418 response): 1 to 10 µM

## Cc1c2c(nc3nc(NC4CCN(Cc5ccncc5)CC4)nc(N)c13)CCC2 [Example 651]
[1]
  Emax: 100 to 3000%
  EC (100% of 200 uM G418 response): 0.1 to 1 µM
[2]
  EC (50% of 200 uM G418 response): 0.1 to 1 µM
  EC (100% of 200 uM G418 response): 1 to 10 µM

## Cc1cc(C)c2c(N)nc(NC3CCN(Cc4cnco4)CC3)nc2n1 [Example 474]
[1]
  Emax: 100 to 3000%
  EC (100% of 200 uM G418 response): 10 to 100 µM

## Cc1c2c(nc3nc(N[C@H]4CN(C)C[C@@H]4O)nc(N(C)C)c13)CCC2 [Example 547]
[1]
  Emax: 100 to 3000%
  EC (100% of 200 uM G418 response): 10 to 100 µM

## CNc1nc(N[C@@H]2CCN(C)C2)nc2nc(C)c3c(c12)CCC3 [Example 337]
[1]
  EC (100% of 200 uM G418 response): 0.1 to 1 µM

## Cc1cc(C)c2c(N)nc(N[C@@H]3CCN(Cc4ccc(C#N)cc4)C[C@@H]3F)nc2n1 [Example 575]
[1]
  Emax: 100 to 3000%
  EC (100% of 200 uM G418 response): 10 to 100 µM

## CNc1nc(NC2C3CCC2CN(C)C3)nc2nc(C)cc(C)c12 (single isomer, unassigned) [Example 433]
[1]
  Emax: 100 to 3000%
  EC (100% of 200 uM G418 response): 1 to 10 µM

## Cc1cc(C)c2c(N)nc(NCC3CN(C)CCO3)nc2n1 (centres unmarked) [Example 152]
[1]
  Emax: 100 to 3000%
  EC (100% of 200 uM G418 response): 10 to 100 µM

## Cc1nc2nc(NC3CCN(C)CC3)nc(N)c2c2c1CCC2 [Example 11, 6-methyl-N^3-(1-methylpiperidin-4-yl)-8,9-dihydro-7H-cyclopenta[4,5]pyrido[2,3-d]pyrimidine-1,3-diamine]
[1]
  Emax: 100 to 3000%
  EC (100% of 200 uM G418 response): 0.1 to 1 µM

## CNc1nc(NC2C3CNC2C3)nc2nc(C)cc(C)c12 (single isomer, unassigned) [Example 445]
[1]; maximum fold response relative to 200 μM G418
  Fold Over Control: ## (Fold over Ctrl > 1 ≤ 30)
[1]; negative logarithm of the concentration giving the same response as 200 μM G418
  pC100%: ++ (pC100% > 5.0 ≤ 6.0)

## Cc1nc2nc(NC3CCN(Cc4ccc(C#N)cc4F)CC3)nc(N)c2c2c1CCC2 [Example 527]
[1]
  Emax: 100 to 3000%
  EC (100% of 200 uM G418 response): 0.1 to 1 µM

Reference: patent publication US20260234144A1 (TAY THERAPEUTICS LIMITED, priority 2023, published 2026)
